IC50 data for 26 compounds are collected here from patent US9394263B2, “Substituted hetero-azepinones” (priority 2012, dated 2016).

Where a name gives a salt, the structure may show the parent alone.

Sequence of BIR3 domain of XIAP (P98170 241-356 with tags or gaps limits assumed): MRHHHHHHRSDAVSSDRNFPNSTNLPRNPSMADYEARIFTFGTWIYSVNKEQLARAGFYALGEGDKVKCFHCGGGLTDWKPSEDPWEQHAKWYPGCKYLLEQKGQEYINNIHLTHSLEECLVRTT

For one assay, the target named is BIR2 domain of XIAP (Homo sapiens (Human), UniProt P98170, C202A/C213G). The assay is described as follows: TR-FRET assay for BIR2: inhibition of binding of XIAP BIR2 domain to Peptide A (SMAC-derived peptide).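 Further: percent inhibition measured across a concentration series of each compound, from which the IC50 was derived.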
Sequence of BIR2 domain of XIAP (P98170 other isoform, or with tags, fused parts or gaps, stated change not applied): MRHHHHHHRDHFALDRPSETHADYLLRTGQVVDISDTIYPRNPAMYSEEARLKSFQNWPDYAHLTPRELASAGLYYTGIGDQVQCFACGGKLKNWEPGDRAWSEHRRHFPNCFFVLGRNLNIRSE
Conditions: not given
On to `CN[C@@H](C)C(=O)N[C@H]1C(=O)N(Cc2c(OC)ccc3cc(Br)ccc23)c2ccccc2OC12CCOCC2` [Example 1f], for which the IC50 was 4360 nM. Compound `CN[C@@H](C)C(=O)N[C@@H]1C(=O)N(Cc2c(OC)ccc3cc(Br)ccc23)c2ccccc2OC12CCOCC2` [Example 1g] yielded an IC50 of 65 nM. The same measure, in the same setting: as for `CN[C@@H](C)C(=O)N[C@@H]1C(=O)N(Cc2c(OC)cnc3ccccc23)c2ccccc2OC12CCOCC2` [Example 1r], the figure is 141 nM. The same measure, in the same setting: as for `CN[C@@H](C)C(=O)N[C@H]1CSc2c(NC(=O)C3CCN(C(C)=O)CC3)cccc2N(Cc2cccc3ccccc23)C1=O` [Example 23, 1-Acetyl-piperidine-4-carboxylic acid [(R)-3-((S)-2-methylamino-propionylamino)-5-naphthalen-1-ylmethyl-4-oxo-2,3,4,5-tetrahydro-benzo[b][1,4]thiazepin-9-yl]-amide], the figure is 373 nM; as for `CN[C@@H](C)C(=O)N[C@@H]1C(=O)N(Cc2nn(-c3ccc(C(=O)O)cc3C#N)c3ccccc23)c2ccccc2O[C@H]1C` [Example 80, 3-Cyano-4-(3-(((2S,3S)-2-methyl-3-((S)-2-(methylamino)propanamido)-4-oxo-3,4-dihydrobenzo[b][1,4]oxazepin-5(2H)-yl)methyl)-1H-indazol-1-yl)benzoic acid trifluoroacetate], 118 nM.

The same assay, now with this note: read-out: BIR2 IC50.
Take `CN[C@@H](C)C(=O)N[C@H]1COc2ccccc2N(Cc2c(OC)ccc3ccccc23)C1=O` [Example 29b]: the IC50 worked out at 198 nM. Still for that read-out and setting: as for `CN[C@@H](C)C(=O)N[C@H]1COc2ccccc2N(Cc2c(OC)ccc3cc(C(=O)OC)ccc23)C1=O` [Example 31, Methyl 6-methoxy-5-(((S)-3-((S)-2-(methylamino)propanamido)-4-oxo-3,4-dihydrobenzo[b][1,4]oxazepin-5(2H)-yl)methyl)-2-naphthoate trifluoroacetate], the figure is 189 nM.

Regarding `CN[C@@H](C)C(=O)N[C@H]1COc2ccccc2N(Cc2c(OC)ccc3cc(C(=O)O)ccc23)C1=O` [Example 32, 6-Methoxy-5-(((S)-3-((S)-2-(methylamino)propanamido)-4-oxo-3,4-dihydrobenzo[b][1,4]oxazepin-5(2H)-yl)methyl)-2-naphthoic acid trifluoroacetate], the IC50 was found to be 55 nM. On the same count and under the same terms, as for `CN[C@@H](C)C(=O)N[C@@H]1C(=O)N(Cc2c(OC)ccc3cc(Br)ccc23)c2ccc(C)cc2O[C@H]1C` [Example 39, (S)-N-((2S,3S)-5-((6-Bromo-2-methoxynaphthalen-1-yl)methyl)-2,8-dimethyl-4-oxo-2,3,4,5-tetrahydrobenzo[b][1,4]oxazepin-3-yl)-2-(methylamino)propanamide trifluoroacetate], the figure is 54 nM; as for `CN[C@@H](C)C(=O)N[C@H]1COc2ccc(C(F)(F)F)cc2N(Cc2c(OC)ccc3cc(Br)ccc23)C1=O` [Example 42, (S)-N-((S)-5-((6-Bromo-2-methoxynaphthalen-1-yl)methyl)-4-oxo-7-(trifluoromethyl)-2,3,4,5-tetrahydrobenzo[b][1,4]oxazepin-3-yl)-2-(methylamino)propanamide trifluoroacetate], 57 nM.

On to `CN[C@@H](C)C(=O)N[C@@H]1C(=O)N(Cc2c(OC)ccc3cc(Br)ccc23)c2cc(C(F)(F)F)ccc2O[C@H]1C` [Example 43, (S)-N-[(6S,7S)-9-(6-Bromo-2-methoxy-naphthalen-1-ylmethyl)-6-methyl-8-oxo-2-trifluoromethyl-6,7,8,9-tetrahydro-5-oxa-9-aza-benzocyclohepten-7-yl]-2-methylamino-propionamide trifluoroacetate], for which the IC50 was found to be 92 nM. For the compound `CN[C@@H](C)C(=O)N[C@H]1COc2ccccc2N(Cc2cccc(Cl)c2)C1=O` [Example 46, (S)-N-((S)-5-(3-Chlorobenzyl)-4-oxo-2,3,4,5-tetrahydrobenzo[13,][1,4]oxazepin-3-yl)-2-(methylamino)propanamide], the IC50 turned out to be 3110 nM. Still for that read-out and setting: as for `CN[C@@H](C)C(=O)N[C@H]1COc2c(C(=O)O)cccc2N(Cc2c(OC)ccc3cc(Br)ccc23)C1=O` [Example 48, (S)-5-((6-bromo-2-methoxynaphthalen-1-yl)methyl)-3-((S)-2-(methylamino)propanamido)-4-oxo-2,3,4,5-tetrahydrobenzo[b][1,4]oxazepine-9-carboxylic acid trifluoroacetate], the figure is 89 nM. Consider `CN[C@@H](C)C(=O)N[C@H]1COc2c(C(=O)NCCC(=O)O)cccc2N(Cc2c(OC)ccc3cc(Br)ccc23)C1=O` [Example 50, 3-{[(S)-9-(6-Bromo-2-methoxy-naphthalen-1-ylmethyl)-74S)-2-methylamino-propionylamino)-8-oxo-6,7,8,9-tetrahydro-5-oxa-9-aza-benzocycloheptene-4-carbonyl]-amino}-propionic acid trifluoroacetate], for which the IC50 was found to be 134 nM. With `CN[C@@H](C)C(=O)N[C@H]1COc2c(C(=O)NCc3ccc(C(=O)OC)cc3)cccc2N(Cc2c(OC)ccc3cc(Br)ccc23)C1=O` [Example 51, 4-({[(S)-9-(6-Bromo-2-methoxy-naphthalen-1-ylmethyl)-7-((S)-2-methylamino-propionylamino)-8-oxo-6,7,8,9-tetrahydro-5-oxa-9-aza-benzocycloheptene-4-carbonyl]-amino}-methyl)-benzoic acid methyl ester], the IC50 came to 410 nM. In the case of `CN[C@@H](C)C(=O)N[C@H]1COc2c(C(=O)O)cccc2N(Cc2c(OC)ccc3cc(C(=O)O)ccc23)C1=O` [Example 52, (S)-5-((6-Carboxy-2-methoxynaphthalen-1-yl)methyl)-3-((S)-2-(methylamino)propanamido)-4-oxo-2,3,4,5-tetrahydrobenzo[b][1,4]oxazepine-9-carboxylic acid trifluoroacetate], the IC50 is 59 nM. On the same count and under the same terms, as for `CN[C@@H](C)C(=O)N[C@H]1COc2c(C(=O)O)cccc2N(Cc2ccc(Br)c3ccccc23)C1=O` [Example 54, (S)-5-((4-Bromonaphthalen-1-yl)methyl)-3-((S)-2-(methylamino)propanamido)-4-oxo-2,3,4,5-tetrahydrobenzo[b][1,4]oxazepine-9-carboxylic acid trifluoroacetate], the figure is 649 nM. The same measure, in the same setting: to `CN[C@@H](C)C(=O)N[C@H]1COc2c(C(=O)N3CCN(CCO)CC3)cccc2N(Cc2ccc(Br)c3ccccc23)C1=O` [Example 55, (S)-N-((S)-5-((4-Bromonaphthalen-1-yl)methyl)-9-(4-(2-hydroxyethyl)piperazine-1-carbonyl)-4-oxo-2,3,4,5-tetrahydrobenzo[b][1,4]oxazepin-3-yl)-2-(methylamino)propanamide] belongs 957 nM; to `CN[C@@H](C)C(=O)N[C@H]1COc2c(C(=O)N3CCN(CCCO)CC3)cccc2N(Cc2ccc(Br)c3ccccc23)C1=O` [Example 56, (S)-N-((S)-5-((4-Bromonaphthalen-1-yl)methyl)-9-(4-(3-hydroxypropyl)piperazine-1-carbonyl)-4-oxo-2,3,4,5-tetrahydrobenzo[b][1,4]oxazepin-3-yl)-2-(methylamino)propanamide], 1600 nM; to `CN[C@@H](C)C(=O)N[C@H]1COc2ccccc2N(Cc2cc(=O)n(C)c3ccc(F)cc23)C1=O` [Example 61, (S)-N-((S)-5-((6-Fluoro-1-methyl-2-oxo-1,2-dihydroquinolin-4-yl)methyl)-4-oxo-2,3,4,5-tetrahydrobenzo[b][1,4]oxazepin-3-yl)-2-(methylamino)propanamide], 686 nM.

Take `CN[C@@H](C)C(=O)N[C@H]1COc2ccccc2N(Cc2nn(-c3ccccc3C#N)c3cc(Br)ccc23)C1=O` [Example 72, (S)-N-((S)-5-((6-Bromo-1-(2-cyanophenyl)-1H-indazol-3-yl)methyl)-4-oxo-2,3,4,5-tetrahydrobenzo[b][1,4]oxazepin-3-yl)-2-(methylamino)propanamide trifluoroacetate]: the IC50 was 281 nM. Still for that read-out and setting: to `CC[C@H](NCCO)C(=O)N[C@H]1COc2ccccc2N(Cc2c(OC)ccc3cc(Br)ccc23)C1=O` [Example 83, (S)-N-((S)-5-((6-Bromo-2-methoxynaphthalen-1-yl)methyl)-4-oxo-2,3,4,5-tetrahydrobenzo[b][1,4]oxazepin-3-yl)-2-(2-hydroxyethylamino)butanamide trifluoroacetate] belongs 44 nM; to `CN[C@@H](C)C(=O)N[C@H]1COc2c(cccc2C(F)(F)F)N(Cc2noc3ccccc23)C1=O` [Example 90, (S)-N-((S)-5-(Benzo[d]isoxazol-3-ylmethyl)-4-oxo-9-(trifluoromethyl)-2,3,4,5-tetrahydrobenzo[b][1,4]oxazepin-3-yl)-2-(methylamino)propanamide hydrochloride], 490 nM.

A further assay has as its target BIR3 domain of XIAP (Homo sapiens (Human), UniProt P98170). The assay is described as follows: TR-FRET assay for BIR3: inhibition of binding of XIAP BIR3 domain to Peptide A (SMAC-derived peptide).
Conditions: not given
`[2H]C([2H])([2H])N[C@@H](C)C(=O)N[C@@H]1C(=O)N(Cc2c(OC)ccc3cc(Br)ccc23)c2ccccc2OC12CCOCC2` [Example 19, (2S)-N-(5-((6-Bromo-2-methoxynaphthalen-1-yl)methyl)-(3S)-4-oxo-2′,3′,5′,6′-tetrahydro-3H-spiro[benzo[b][1,4]oxazepine-2,4′-pyran]-3-yl)-2-(methyl-d3-amino)propanamide hydrochloride] returned an IC50 of 22900 nM. The same measure, in the same setting: as for `CN[C@@H](C)C(=O)N[C@H]1CSc2c(NC(=O)C3CCN(C(C)=O)CC3)cccc2N(Cc2cccc3ccccc23)C1=O` [Example 23, 1-Acetyl-piperidine-4-carboxylic acid [(R)-3-((S)-2-methylamino-propionylamino)-5-naphthalen-1-ylmethyl-4-oxo-2,3,4,5-tetrahydro-benzo[b][1,4]thiazepin-9-yl]-amide], the figure is more than 54800 nM.

The same assay, now with this note: read-out: BIR3 IC50.
For `CC[C@H](NC)C(=O)N[C@@H]1C(=O)N(Cc2c(OC)ccc3cc(Br)ccc23)c2ccc(F)cc2OC12CCOCC2` [Example 16, (2S)-N-(5-((6-Bromo-2-methoxynaphthalen-1-yl)methyl)-(3S)-8-fluoro-4-oxo-2′,3′,5′,6′-tetrahydro-3H-spiro[benzo[b][1,4]oxazepine-2,4′-pyran]-3-yl)-2-(methylamino)butanamide hydrochloride], the 50% inhibitory concentration (IC50) is more than 50000 nM.

For `CN[C@@H](C)C(=O)N[C@H]1CSc2c(NC(=O)COCCOC)cccc2N(Cc2cccc3ccccc23)C1=O` [Example 22, (S)-N-{(R)-9-[2-(2-Methoxy-ethoxy)-acetylamino]-5-naphthalen-1-ylmethyl-4-oxo-2,3,4,5-tetrahydro-benzo[b][1,4]thiazepin-3-yl}-2-methylamino-propionamide hydrochloride], the IC50 is more than 54800 nM. Same read-out and setting: to `CN[C@@H](C)C(=O)N[C@H]1COc2ccccc2N(Cc2nn(-c3ccccc3C#N)c3cc(Br)ccc23)C1=O` [Example 72, (S)-N-((S)-5-((6-Bromo-1-(2-cyanophenyl)-1H-indazol-3-yl)methyl)-4-oxo-2,3,4,5-tetrahydrobenzo[b][1,4]oxazepin-3-yl)-2-(methylamino)propanamide trifluoroacetate] belongs more than 54800 nM.
